Assay results: PMC12602806, “Itaconate reduces viral endocytosis by targeting Cys128 of the adaptor-related protein complex 1 gamma 1 subunit in the host, providing a novel target for antiviral drug development” (Molecular Biomedicine, 2025)

Molecular target: T1, AP1G1 (Homo sapiens, UniProt O43747)
T1 construct: endogenous full-length AP1G1 in BEAS-2B cells or lysate; untagged
T1 sequence (O43747 1-822): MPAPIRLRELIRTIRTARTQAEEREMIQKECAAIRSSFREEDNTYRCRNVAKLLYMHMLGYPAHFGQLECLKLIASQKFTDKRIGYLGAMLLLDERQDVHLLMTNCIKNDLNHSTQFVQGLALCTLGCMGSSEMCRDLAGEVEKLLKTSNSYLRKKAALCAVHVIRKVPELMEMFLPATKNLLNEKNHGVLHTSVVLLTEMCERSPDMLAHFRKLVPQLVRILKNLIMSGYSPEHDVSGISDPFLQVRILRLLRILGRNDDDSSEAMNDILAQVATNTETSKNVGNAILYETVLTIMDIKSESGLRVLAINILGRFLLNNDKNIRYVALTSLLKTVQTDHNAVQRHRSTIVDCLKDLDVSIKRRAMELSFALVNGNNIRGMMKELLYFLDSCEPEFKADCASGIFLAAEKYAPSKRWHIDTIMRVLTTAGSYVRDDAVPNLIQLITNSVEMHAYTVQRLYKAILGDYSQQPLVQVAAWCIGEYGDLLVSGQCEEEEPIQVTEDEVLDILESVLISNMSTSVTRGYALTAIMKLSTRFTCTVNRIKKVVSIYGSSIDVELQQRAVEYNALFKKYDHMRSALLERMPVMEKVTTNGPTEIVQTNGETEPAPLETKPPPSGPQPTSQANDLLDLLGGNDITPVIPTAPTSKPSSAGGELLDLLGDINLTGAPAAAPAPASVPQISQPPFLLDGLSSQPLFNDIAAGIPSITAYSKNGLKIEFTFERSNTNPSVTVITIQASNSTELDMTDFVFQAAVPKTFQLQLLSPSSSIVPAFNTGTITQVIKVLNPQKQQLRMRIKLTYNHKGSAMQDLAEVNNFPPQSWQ
Test: CETSA-Western blot
Type: cell-based
Conditions: 40-65 ℃; covalent; Cys128; also competes with ITAP in BEAS-2B lysate

## C=C(CC(=O)O)C(=O)O [itaconate]
  CETSA-Western blot: Itaconate treatment significantly altered the thermal stability of AP1G1
